The target of assay [1] is PHD1 (EGLN2) (Homo sapiens (Human), UniProt Q96KS0). Description: HIF-PH assay (14CO2 capture), PHD1 enzyme inhibition. The following applies: Table 1; for IC50: individual measurement, read-out: IC50 (μM) PHD1; for PHD2/PHD1: ratio of the IC50 of the compound for each enzyme. The assay is classed as biochemical. The source says:
(§1) Ketoglutaric acid α-[1-^14C]-sodium salt, alpha-ketoglutaric acid sodium salt, and HPLC purified peptide may be obtained from commercial sources, e.g., Perkin-Elmer (Wellesley Mass.), Sigma-Aldrich, and SynPep Corp. (Dublin Calif.), respectively. Peptides for use in the assay may be fragments of HIFα as described above or as disclosed in International Publication WO 2005/118836, incorporated by reference herein. HIF-pH, e.g., PHD1 (EGLN2) or PHD2 (EGLN1), can be expressed in, e.g., insect Hi5 cells, and partially purified, e.g., through a SP ion exchange chromatography column. Enzyme activity is determined by capturing ^14CO2 using an assay described by Kivirikko and Myllyla (1982, Methods Enzymol. 82:245-304). Assay reactions contain 50 mM HEPES (pH 7.4), 100 μM α-ketoglutaric acid sodium salt, 0.30 mCi/mL ketoglutaric acid α-[1-^14C]-sodium salt, 40 μM FeSO4, 1 mM ascorbate, 1541.8 units/mL Catalase, with or without 50 μM peptide substrate and various concentrations of compound of the invention. Reactions are initiated by addition of HIF-PH enzyme.
(§2) The peptide-dependent percent turnover is calculated by subtracting percent turnover in the absence of peptide from percent turnover in the presence of substrate peptide. Percent inhibition and IC50 are calculated using peptide-dependent percent turnover at given inhibitor concentrations. Calculation of IC50 values for each inhibitor is conducted using GraFit software (Erithacus Software Ltd., Surrey UK).
(§3) The PHD2/PHD1 is the ratio of the IC50 of the compound for each enzyme.

Assay [2] addresses PHD2 (EGLN1) (Homo sapiens (Human), UniProt Q9GZT9). Description: HIF-PH assay (14CO2 capture), PHD2 enzyme inhibition. It counts as biochemical. The note with it: Table 1; individual measurement; read-out: IC50 (μM) PHD2.
Source text: as §1, §2, §3

Molecules are shown by their SMILES.

Chain of PHD2 (EGLN1) (Q9GZT9 whole entry): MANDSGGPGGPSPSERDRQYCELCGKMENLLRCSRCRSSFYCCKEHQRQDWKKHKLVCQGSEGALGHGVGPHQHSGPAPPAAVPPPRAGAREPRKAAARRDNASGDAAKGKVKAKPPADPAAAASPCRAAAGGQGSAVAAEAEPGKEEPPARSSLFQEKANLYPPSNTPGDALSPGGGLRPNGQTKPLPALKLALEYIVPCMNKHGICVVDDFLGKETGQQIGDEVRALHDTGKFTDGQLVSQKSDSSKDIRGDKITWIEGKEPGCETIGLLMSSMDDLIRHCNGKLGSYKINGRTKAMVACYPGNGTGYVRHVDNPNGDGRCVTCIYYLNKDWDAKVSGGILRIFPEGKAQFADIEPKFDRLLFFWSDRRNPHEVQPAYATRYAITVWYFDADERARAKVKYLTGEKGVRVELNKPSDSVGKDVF
Chain of PHD1 (EGLN2) (Q96KS0 whole entry, the tested form may be a part): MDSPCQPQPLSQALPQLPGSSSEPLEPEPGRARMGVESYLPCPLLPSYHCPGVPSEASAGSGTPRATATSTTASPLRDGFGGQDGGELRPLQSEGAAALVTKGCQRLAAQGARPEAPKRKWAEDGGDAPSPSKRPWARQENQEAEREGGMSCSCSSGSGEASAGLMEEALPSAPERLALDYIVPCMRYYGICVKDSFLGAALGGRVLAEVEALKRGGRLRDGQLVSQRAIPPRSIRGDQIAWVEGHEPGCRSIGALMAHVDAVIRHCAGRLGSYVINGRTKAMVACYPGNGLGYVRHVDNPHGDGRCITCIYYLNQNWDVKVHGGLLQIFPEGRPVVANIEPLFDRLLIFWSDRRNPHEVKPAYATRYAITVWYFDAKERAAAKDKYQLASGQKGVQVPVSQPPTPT

Turning to `N#Cc1nc(C(=O)NCC2(C(=O)O)CCC2)c(O)c2ccc(Oc3c(F)cccc3F)cc12` [Compound 26, 1-({[1-Cyano-7-(2,6-difluoro-phenoxy)-4-hydroxy-isoquinoline-3-carbonyl]-amino}-methyl)-cyclobutanecarboxylic acid], the IC50 amounted to 0.7 µM in assay [1] and 5.43 µM in assay [2]. Also, the PHD2/PHD1 in assay [1] is 8.
In the case of `CC(C)(CNC(=O)c1nc(C#N)c2cc(Oc3cccnc3)ccc2c1O)C(=O)O` [Compound 27, 3{-[1-Cyano-4-hydroxy-7-(pyridin-3-yloxy)-isoquinoline-3-carbonyl]-amino}-2,2-dimethyl-propionic acid], the half-inhibitory concentration (IC50) in assay [1] is 3.27 µM; in assay [2] it was 33.3 µM. Moreover, the PHD2/PHD1 in assay [1] is on record as 10.
`N#Cc1nc(C(=O)NCC2(C(=O)O)CCC2)c(O)c2ccc(Oc3cccnc3)cc12` [Compound 28, 1-({[1-Cyano-4-hydroxy-7-(pyridin-3-yloxy)-isoquinoline-3-carbonyl]-amino}-methyl)-cyclobutanecarboxylic acid]: in assay [1], the half-inhibitory concentration (IC50) is 1.3 µM and the PHD2/PHD1 is on record as 5. The IC50 in assay [2] came to 7.15 µM.
As to `N#Cc1nc(C(=O)NCC2(C(=O)O)CCS(=O)(=O)CC2)c(O)c2ccc(Oc3ccccc3)cc12` [Compound 29, 4-{[(1-Cyano-4-hydroxy-7-phenoxy-isoquinoline-3-carbonyl)-amino]-methyl}-1,1-dioxo-hexahydro-1λ^6-thiopyran-4-carboxylic acid], the figures for the IC50 in assay [1] and in assay [2] were 3.76 µM and 37.3 µM, respectively. The PHD2/PHD1 in assay [1] amounted to 9.9.
Consider `N#Cc1nc(C(=O)NCC2(C(=O)O)CC[S+]([O-])CC2)c(O)c2ccc(Oc3ccccc3)cc12` (stereo not drawn) [Compound 30, 4-{[(1-Cyano-4-hydroxy-7-phenoxy-isoquinoline-3-carbonyl)-amino]-methyl}-1-oxo-hexahydro-1λ^4-thiopyran-4-carboxylic acid], for which, in assay [1], the IC50 was 25.1 µM and the PHD2/PHD1 was found to be 8. Further, in assay [2], the IC50 was determined as 200 µM.
For `CC(C)(CNC(=O)c1nc(C#N)c2cc(Oc3cc(F)ccc3Cl)ccc2c1O)C(=O)O` [Compound 31, 3-{[7-(2-Chloro-5-fluoro-phenoxy)-1-cyano-4-hydroxy-isoquinoline-3-carbonyl]-amino}-2,2-dimethyl-propionic acid] the same measures were 0.53 µM, 8 and 4.2 µM.
For `N#Cc1nc(C(=O)NCC(CC(=O)O)c2ccc(Cl)cc2)c(O)c2ccc(Oc3ccccc3)cc12` (stereo not drawn) [Compound 34, 3-(4-Chloro-phenyl)-4-[(1-cyano-4-hydroxy-7-phenoxy-isoquinoline-3-carbonyl)-amino]-butyric acid] the same measures were 2.55 µM, 12 and 30.9 µM.
For `N#Cc1nc(C(=O)NC[C@@H](O)CC(=O)O)c(O)c2ccc(Oc3ccccc3)cc12` [Compound 35, (S)-4-(1-Cyano-4-hydroxy-7-phenoxyisoquinoline-3-carboxamido)-3-hydroxybutanoic acid], in assay [1], the IC50 came out at 0.23 µM and the PHD2/PHD1 is on record as 12. In addition, the concentration for half-maximal inhibition (IC50) in assay [2] worked out at 2.83 µM.
For `N#Cc1nc(C(=O)NCC2(CC(=O)O)CCCCC2)c(O)c2ccc(Oc3ccccc3)cc12` [Compound 36, (1-{[(1-Cyano-4-hydroxy-7-phenoxy-isoquinoline-3-carbonyl)-amino]-methyl}-cyclohexyl)-acetic acid] the same measures were 5.93 µM, 10 and 56.6 µM.
As for `N#Cc1nc(C(=O)N[C@@H](CO)CC(=O)O)c(O)c2ccc(Oc3ccccc3)cc12` [Compound 37, (R)-3-(1-Cyano-4-hydroxy-7-phenoxyisoquinoline-3-carboxamido)-4-hydroxybutanoic acid], in assay [1], the half-maximal inhibitory concentration (IC50) was 6.67 µM and the PHD2/PHD1 amounted to 24. Further, in assay [2], the concentration for half-maximal inhibition (IC50) turned out to be 159 µM.
As to `CC(C)(CNC(=O)c1nc(C#N)c2cc(Oc3ccccc3Cl)ccc2c1O)C(=O)O` [Compound 38, 3-(7-(2-Chlorophenoxy)-1-cyano-4-hydroxyisoquinoline-3-carboxamido)-2,2-dimethylpropanoic acid], in assay [1], the half-maximal inhibitory concentration (IC50) came out at 0.24 µM and the PHD2/PHD1 is listed as 20. The half-maximal inhibitory concentration (IC50) in assay [2] is 4.79 µM.
On to `CC(C)(CNC(=O)c1nc(C#N)c2cc(Oc3cccc(Cl)c3)ccc2c1O)C(=O)O` [Compound 39, 3-{[7-(3-Chloro-phenoxy)-1-cyano-4-hydroxy-isoquinoline-3-carbonyl]-amino}-2,2-dimethyl-propionic acid], for which, in assay [1], the IC50 was found to be 0.18 µM and the PHD2/PHD1 was 11. Moreover, in assay [2], the IC50 was 1.97 µM.
With `CC(C)(CNC(=O)c1nc(C#N)c2cc(Oc3ccc(Cl)cc3)ccc2c1O)C(=O)O` [Compound 40, 3-{[7-(4-Chloro-phenoxy)-1-cyano-4-hydroxy-isoquinoline-3-carbonyl]-amino}-2,2-dimethyl-propionic acid], in assay [1], the 50% inhibitory concentration (IC50) was determined as 0.3 µM and the PHD2/PHD1 stood at 13. In addition, the concentration for half-maximal inhibition (IC50) in assay [2] is 4.01 µM.
With `CC(C)(CNC(=O)c1nc(C#N)c2cc(Oc3ccccc3F)ccc2c1O)C(=O)O` [Compound 41, 3{-[1-Cyano-7-(2-fluoro-phenoxy)-4-hydroxy-isoquinoline-3-carbonyl]-amino}-2,2-dimethyl-propionic acid], in assay [1], the IC50 worked out at 0.55 µM and the PHD2/PHD1 is 17. Besides, in assay [2], the concentration for half-maximal inhibition (IC50) is 9.56 µM.
With `CC(C)(CNC(=O)c1nc(C#N)c2cc(Oc3cccc(F)c3)ccc2c1O)C(=O)O` [Compound 42, 3-(1-Cyano-7-(3-fluorophenoxy)-4-hydroxyisoquinoline-3-carboxamido)-2,2-dimethylpropanoic acid], in assay [1], the IC50 came out at 0.36 µM and the PHD2/PHD1 is 11. For the same molecule, the IC50 in assay [2] amounted to 3.95 µM.
Regarding `CC(C)(CNC(=O)c1nc(C#N)c2cc(Oc3cccc4ccccc34)ccc2c1O)C(=O)O` [Compound 43, 3-(1-Cyano-4-hydroxy-7-(naphthalen-1-yloxy)isoquinoline-3-carboxamido)-2,2-dimethylpropanoic acid], the values for the 50% inhibitory concentration (IC50) in assay [1] and in assay [2] were 0.22 µM and 1.73 µM, respectively. Moreover, the PHD2/PHD1 in assay [1] is 8.
Consider `Cc1ccc(Oc2ccc3c(O)c(C(=O)NCC(C)(C)C(=O)O)nc(C#N)c3c2)cc1` [Compound 44, 3-[(1-Cyano-4-hydroxy-7-p-tolyloxy-isoquinoline-3-carbonyl)-amino]-2,2-dimethyl-propionic acid], for which the results for the 50% inhibitory concentration (IC50) in assay [1] and in assay [2] were 0.28 µM and 3.9 µM, respectively. In assay [1], the PHD2/PHD1 was determined as 14.
`N#Cc1nc(C(=O)NCC[C@H](N)C(=O)O)c(O)c2ccc(Oc3ccccc3)cc12` [Compound 45, (S)-2-Amino-4-(1-cyano-4-hydroxy-7-phenoxyisoquinoline-3-carboxamido)butanoic acid]: the IC50 in assay [1] was found to be 1.41 µM; in assay [2], 36.7 µM. In assay [1], the PHD2/PHD1 is 26.
Consider `CC(C)(CCC(=O)O)NC(=O)c1nc(C#N)c2cc(Oc3ccccc3)ccc2c1O` [Compound 46, 4-(1-Cyano-4-hydroxy-7-phenoxyisoquinoline-3-carboxamido)-4-methylpentanoic acid], for which the IC50 in assay [1] is 0.94 µM; in assay [2] it was 20.8 µM. In addition, the PHD2/PHD1 in assay [1] is 22.
For `N#Cc1nc(C(=O)N[C@@H](CC(=O)O)c2ccccc2)c(O)c2ccc(Oc3ccccc3)cc12` [Compound 47, (S)-3-[(1-Cyano-4-hydroxy-7-phenoxy-isoquinoline-3-carbonyl)-amino]-3-phenyl-propionic acid], in assay [1], the half-maximal inhibitory concentration (IC50) was determined as 1.28 µM and the PHD2/PHD1 is given as 24. Further, in assay [2], the half-maximal inhibitory concentration (IC50) worked out at 30.2 µM.
As for `N#Cc1nc(C(=O)N[C@H](CC(=O)O)c2ccccc2)c(O)c2ccc(Oc3ccccc3)cc12` [Compound 48, (R)-3-[(1-Cyano-4-hydroxy-7-phenoxy-isoquinoline-3-carbonyl)-amino]-3-phenyl-propionic acid], in assay [1], the IC50 was found to be 5.42 µM and the PHD2/PHD1 was 9. The IC50 in assay [2] came to 50.1 µM.
Consider `N#Cc1nc(C(=O)NC[C@H](Cc2ccccc2)C(=O)O)c(O)c2ccc(Oc3ccccc3)cc12` [Compound 49, (S)-2-Benzyl-3-[(1-cyano-4-hydroxy-7-phenoxy-isoquinoline-3-carbonyl)-amino]-propionic acid], for which the IC50 in assay [1] is 1.66 µM; in assay [2] it was 23.9 µM. The PHD2/PHD1 in assay [1] was found to be 14.
`N#Cc1nc(C(=O)NCC[C@@H](N)C(=O)O)c(O)c2ccc(Oc3ccccc3)cc12` [Compound 50, (R)-2-Amino-4-(1-cyano-4-hydroxy-7-phenoxyisoquinoline-3-carboxamido)butanoic acid]: the results for the 50% inhibitory concentration (IC50) in assay [1] and in assay [2] were 5.19 µM and 45.4 µM, respectively. Besides, the PHD2/PHD1 in assay [1] stood at 9.
`CC(=O)N[C@H](CCNC(=O)c1nc(C#N)c2cc(Oc3ccccc3)ccc2c1O)C(=O)O` [Compound 51, (R)-2-Acetylamino-4-[(1-cyano-4-hydroxy-7-phenoxy-isoquinoline-3-carbonyl)-amino]-butyric acid]: in assay [1], the IC50 amounted to 0.28 µM and the PHD2/PHD1 was determined as 7.5. The IC50 in assay [2] is 2.1 µM.

For orientation: IC50 means the midpoint of a concentration-inhibition curve.

The record behind these values is US9409892B2, “4-hydroxy-isoquinoline compounds as HIF hydroxylase inhibitors” (FIBROGEN, INC., priority 2012, dated 2016).
